Measured values taken from patent US20220409629A1, “BENZODIAZEPINE DERIVATIVES FOR TREATING A RESPIRATORY SYNCYTIAL VIRUS (RSV) INFECTION” (priority 2019, published 2022).

Key:
RSV A2 = experiment: RSV plaque reduction assay; type: cell-based, respiratory syncytial virus (RSV); details: human respiratory syncytial virus, HepG2; Hep-G2 cells, RSV A2, mean of at least two experiments
Experimental: Compounds were subjected to RSV plaque reduction assays according to the following protocol.
Hep-G2 cells (ECACC, 85011430) were passaged in flasks and seeded in 24-well plates in DMEM containing antibiotics and supplemented with 10% FBS. During inoculation and subsequent incubation, cells were cultured in DMEM containing 2% FBS. 100 plaque forming unit/well of RSV (RSV A2 ECACC, 0709161v) was mixed with eight serial dilutions of compound. Subsequently, 100 μL of the virus/compound mixtures was added to confluent Hep-G2 cell monolayers. The cells and virus/compound mixtures were incubated at 37° C. in a humidified 5% CO2 incubator for 2 h prior to removal of the inoculum and addition of 1 mL of overlay (DMEM containing 2% FBS and 0.8% CMC) containing compound dilutions. The cells and were incubated at 37° C. in a humidified 5% CO2 incubator for 2 days.
Cells were washed with PBS before adding 75/25% v/v EtOH/MeOH, for 3 min. Fixative was removed and plates were washed with PBS. A pre-titrated amount of the primary antibody was added in 200 μL PBS/2% milk powder, and plates incubated for 90 min at 37° C. The plates were washed 3 times with PBS/0.05% Tween20 before addition of rabbit anti-goat horse radish peroxidase in 200 μL PBS/2% milk powder, and incubated for 1 h at 37° C. Following three wash steps with PBS/0.05% Tween20, 200 μL ready-to-use TrueBlue was added and plates were incubated at rt for 10-15 min before washing with water. After removal of water, plates were air-dried in the dark.
Plates were scanned and analysed using the Immunospot S6 Macro analyser, which is equipped with BioSpot analysis software for counting immunostained plaques (virospots). Plaque counts were used to calculate % infection relative to the mean of the plaque count in the virus control wells for RSV. The EC50 value was calculated as 50% reduction in signal, respectively, by interpolation of inhibition curves fitted with a 4-parameter nonlinear regression with a variable slope in Dotmatics. Plaque EC50 and cell toxicity CC50 values are a mean of at least two experiments and figures are rounded to whole units.

Cell cytotoxicity CC50 = type: cell-based; details: human; mean of at least two experiments
[1] = Liver microsomal stability, rat; type: in vitro ADME; details: pH 7.4; rat liver microsomes, 0.5 mg/mL protein, 1 μM compound, NADPH; >80% remaining at 45 min denoted >140; read-out: Liver Microsomal Stability: t1/2 (min); rat
Experimental: (§1) Compounds were subjected to the following assays to investigate liver microsomal stability, permeability and plasma protein binding.
(§2) Pooled liver microsomes were purchased from a reputable commercial supplier and stored at −80° C. prior to use. Microsomes (final protein concentration 0.5 mg/mL), 0.1 M phosphate buffer pH 7.4 and test compound (final substrate concentration 1 μM; final DMSO concentration 0.25%) were pre-incubated at 37° C. prior to the addition of NADPH (final concentration 1 mM) to initiate the reaction. The final incubation volume was 50 μL. A control incubation was included for each compound tested where 0.1 M phosphate buffer pH 7.4 was added instead of NADPH (minus NADPH). Two control compounds were included with each species. All incubations were performed singularly for each test compound. Each compound was incubated for 0, 5, 15, 30 and 45 min. The control (minus NADPH) was incubated for 45 min only. The reactions were stopped by transferring incubate into acetonitrile at the appropriate time points, in a 1:3 ratio. The termination plates are centrifuged at 3,000 rpm for 20 min at 4° C. to precipitate the protein. Following protein precipitation, the sample supernatants were combined in cassettes of up to 4 compounds, internal standard added, and samples analysed by LC-MS/MS. From a plot of ln peak area ratio (compound peak area/internal standard peak area) against time, the gradient of the line was determined. Subsequently, half-life (t1/2) and intrinsic clearance (CLint) were calculated.

[2] = Liver microsomal stability, dog; type: in vitro ADME; details: pH 7.4; dog liver microsomes, 0.5 mg/mL protein, 1 μM compound, NADPH; >80% remaining at 45 min denoted >140; read-out: Liver Microsomal Stability: t1/2 (min); dog
Experimental: as §1, §2

[3] = Liver microsomal stability, human; type: in vitro ADME; details: pH 7.4; human liver microsomes, 0.5 mg/mL protein, 1 μM compound, NADPH; >80% remaining at 45 min denoted >140; read-out: Liver Microsomal Stability: t1/2 (min); human
Experimental: as §1, §2

Compound	EC50 (RSV A2) [nM]	CC50 (Cell cytotoxicity CC50) [nM]	half-life [1] [min]	half-life [2] [min]	half-life [3] [min]
CCNc1cnc(-c2c(C(=O)N[C@H]3N=C(c4ccccc4)c4cccc(F)c4NC3=O)cnn2CC)c(F)c1 [Example 13, 1-Ethyl-5-[5-(ethylamino)-3-fluoropyridin-2-yl]-N-[(3S)-9-fluoro-2-oxo-5-phenyl-1,3-dihydro-1,4-benzodiazepin-3-yl]pyrazole-4-carboxamide]	68	> 25000	9.6	35.6	42.9
CCNc1ccc(-c2c(C(=O)N[C@H]3N=C(c4ccccc4)c4ccccc4NC3=O)cnn2C2CC2)c(F)n1 [Example 14, 1-Cyclopropyl-5-[6-(ethylamino)-2-fluoropyridin-3-yl]-N-[(3S)-2-oxo-5-phenyl-1,3-dihydro-1,4-benzodiazepin-3-yl]pyrazole-4-carboxamide]	95	> 25000	37.9	59.3	93.7
O=C(N[C@H]1N=C(c2ccccc2)c2ccccc2NC1=O)c1cnn(C2CC2)c1-c1ccc(NC2CC2)nc1F [Example 15, 1-Cyclopropyl-5-[6-(cyclopropylamino)-2-fluoropyridin-3-yl]-N-[(3S)-2-oxo-5-phenyl-1,3-dihydro-1,4-benzodiazepin-3-yl]pyrazole-4-carboxamide]	51	> 25000	69.8	57.7	72.3
CC(C)n1ncc(C(=O)N[C@H]2N=C(c3ccccc3)c3ccccc3NC2=O)c1-c1ccc(NC2CC2)nc1F [Example 16, 5-[6-(Cyclopropylamino)-2-fluoropyridin-3-yl]-N-[(3S)-2-oxo-5-phenyl-1,3-dihydro-1,4-benzodiazepin-3-yl]-1-propan-2-ylpyrazole-4-carboxamide]	50	> 25000	72.7	22.2	50.6
CCn1ncc(C(=O)N[C@H]2N=C(c3ccccc3)c3cccc(F)c3NC2=O)c1-c1ncc(NC(C)C)cc1F [Example 17, 1-Ethyl-N-[(3S)-9-fluoro-2-oxo-5-phenyl-1,3-dihydro-1,4-benzodiazepin-3-yl]-5-[3-fluoro-5-(propan-2-ylamino)pyridin-2-yl]pyrazole-4-carboxamide]	52	> 25000	318	68.9	120
O=C(N[C@H]1N=C(c2ccccc2)c2ccccc2NC1=O)c1cnn(C2COC2)c1-c1ccc(NC2CC2)nc1F [Example 18, 5-[6-(Cyclopropylamino)-2-fluoropyridin-3-yl]-1-(oxetan-3-yl)-N-[(3S)-2-oxo-5-phenyl-1,3-dihydro-1,4-benzodiazepin-3-yl]pyrazole-4-carboxamide]	83	> 25000	93.5	149	144
CCCNc1ccc(-c2nn(CC)cc2C(=O)N[C@H]2N=C(c3ccccc3)c3ccccc3NC2=O)c(F)n1 [Example 27, 1-Ethyl-3-[2-fluoro-6-(propylamino)pyridin-3-yl]-N-[(3S)-2-oxo-5-phenyl-1,3-dihydro-1,4-benzodiazepin-3-yl]pyrazole-4-carboxamide]	57	> 25000	23.9	12.6	43.1
CCCNc1ccc(-c2nn(CC)cc2C(=O)N[C@H]2N=C(c3ccccc3)c3cccc(F)c3NC2=O)c(F)n1 [Example 28, 1-Ethyl-N-[(3S)-9-fluoro-2-oxo-5-phenyl-1,3-dihydro-1,4-benzodiazepin-3-yl]-3-[2-fluoro-6-(propylamino)pyridin-3-yl]pyrazole-4-carboxamide]	39	> 25000	22.7	30.8	41
CC(C)(C)n1cc(C(=O)N[C@H]2N=C(c3ccccc3)c3ccccc3NC2=O)c(-c2ccc(NC3CC3)nc2F)n1 [Example 29, 1-tert-butyl-3-[6-(cyclopropylamino)-2-fluoropyridin-3-yl]-N-[(3S)-2-oxo-5-phenyl-1,3-dihydro-1,4-benzodiazepin-3-yl]pyrazole-4-carboxamide]	54	> 25000	45.2	44	73.9
O=C(N[C@H]1N=C(c2ccccc2)c2ccccc2NC1=O)c1cn(C2CCOCC2)nc1-c1ccc(NC2CC2)nc1F [Example 31, 3-[6-(Cyclopropylamino)-2-fluoropyridin-3-yl]-1-(oxan-4-yl)-N-[(3S)-2-oxo-5-phenyl-1,3-dihydro-1,4-benzodiazepin-3-yl]pyrazole-4-carboxamide]	55	> 25000	36.3	65.7	116
O=C(N[C@H]1N=C(c2ccccc2)c2cccc(F)c2NC1=O)c1cn(CC(F)(F)F)nc1-c1ccc(NC2CC2)nc1F [Example 33, 3-[6-(Cyclopropylamino)-2-fluoropyridin-3-yl]-N-[(3S)-9-fluoro-2-oxo-5-phenyl-2,3-dihydro-1H-1,4-benzodiazepin-3-yl]-1-(2,2,2-trifluoroethyl)-1H-pyrazole-4-carboxamide]	80	> 25000	56	81	80.3
O=C(N[C@H]1N=C(c2ccccc2)c2ccccc2NC1=O)c1cn(C2CCC(F)(F)CC2)nc1-c1ccc(NC2CC2)nc1F [Example 34, 3-[6-(Cyclopropylamino)-2-fluoropyridin-3-yl]-1-(4,4-difluorocyclohexyl)-N-[(3S)-2-oxo-5-phenyl-1,3-dihydro-1,4-benzodiazepin-3-yl]pyrazole-4-carboxamide]	96	> 25000	121	85.8	119
O=C(N[C@H]1N=C(c2ccccc2)c2cccc(F)c2NC1=O)c1cn(C2CCC(F)(F)CC2)nc1-c1ccc(NC2CC2)nc1F [Example 35, 3-[6-(Cyclopropylamino)-2-fluoropyridin-3-yl]-1-(4,4-difluorocyclohexyl)-N-[(3S)-9-fluoro-2-oxo-5-phenyl-1,3-dihydro-1,4-benzodiazepin-3-yl]pyrazole-4-carboxamide]	60	> 25000	181	90.9	164
CCn1ncc(C(=O)N[C@H]2N=C(c3ccccc3)c3ccccc3NC2=O)c1-c1ncc(NC)cc1F [Example 38, 1-Ethyl-5-(3-fluoro-5-(methylamino)pyridin-2-yl)-N—((S)-2-oxo-5-phenyl-2,3-dihydro-1H-benzo[e][1,4]diazepin-3-yl)-1H-pyrazole-4-carboxamide]	105	> 25000	42	48.6	35.2
CCNc1cnc(-c2c(C(=O)N[C@H]3N=C(c4ccccc4)c4ccccc4NC3=O)cnn2CC)c(F)c1 [Example 39, 1-Ethyl-5-[5-(ethylamino)-3-fluoropyridin-2-yl]-N-[(3S)-2-oxo-5-phenyl-1,3-dihydro-1,4-benzodiazepin-3-yl]pyrazole-4-carboxamide]	62	> 25000	21.4	45.7	62
